The values below are quoted from earlier work in PMC9045302, “The Characterization of an Efficient Phenylpyruvate Decarboxylase KDC4427, Involved in 2-Phenylethanol and IAA Production from Bacterial Enterobacter sp. CGMCC 5087” (Microbiology Spectrum, 2022).

The structures appear in SMILES notation.

Data set [1] has as its target T1, KDC4427 (Enterobacter sp. CGMCC 5087, UniProt Z9M8L3KFT6).
T1 construct: tetramer stated from homology model; ThDP/Mg2+ dependent
In words: coupled assay with yeast alcohol dehydrogenase, NADH at […] nm. The class given is biochemical. As to conditions: pH 7.0, 37°C, 0.2 mM ThDP, 0.1 mM MgSO4; footnote: authors' own data cited from their unpublished paper.

The target in data set [2] is T1, KDC4427. Described as above. Format: biochemical. The note with it: pH 7.0, 37°C, 0.2 mM ThDP, 0.1 mM MgSO4; footnote: authors' own data cited from their unpublished paper. This is another data set of the same source.

For `O=C(O)C(=O)Cc1c[nH]c2ccccc12` [Indole-3-pyruvic acid], the Km at KDC4427 [1] was 0.015 ± 0.002 mM.
Regarding `O=C(O)C(=O)Cc1ccccc1` [Phenylpyruvic acid], the Michaelis-Menten constant (Km) at KDC4427 [2] was 0.6 ± 0.02 mM.

As a reminder, the Km is the substrate concentration at which the rate is half of its maximum.
